Measurements from patent US12390441B2, “Immunomodulating o-het/aryl azalides” (Zoetis Services LLC, priority 2020, dated 2025).
Marks after values point to notes of the source that are not given here.

Key:
TNF-α = assay: Whole blood assay, LPS stimulation, MSD cytokine detection; assay type: cell-based; conditions: Bos taurus, fresh whole bovine blood
IL-1β = assay: as above; assay type: cell-based, bovine; conditions: fresh whole bovine blood, LPS stimulation; drug concentration giving overstimulation (OS) of IL-1β
P. multocida 46572 = assay: In vivo mouse lung infection challenge model (murine); parameters: species or system CD-1 female mice
Procedure: The challenge organism was P. multocida 46572. Target challenge concentration was 5×10^2 CFU/mouse. Isolated colonies from overnight growth (37° C. with 5% CO2) on trypticase soy agar (TSA II) blood plates were transferred to room temperature Brain Heart Infusion Broth (BHIB). The broth culture was incubated 3.5-4 hours to approximately mid-log phase of growth, as measured by forward light scatter at 600 nm (OD600, 0.200). The culture was centrifuged to collect the bacterial pellet. The pellet was re-suspended in BHIB and adjusted to provide an approximate concentration of 2.7 log^10 colony forming units (CFU) in 0.04 mL at the highest concentration. The challenge inoculum concentration was confirmed by serial dilutions of the inoculum for CFU enumeration. On Day −5, CD-1 female mice were received. Mice were given standard rodent diet and water ad libitum. On Day 0, bacterial inoculum (0.04 mL) was administered to each mouse (n=36) intranasally. Compounds of the invention were dosed at 20 mg/kg (0.1 mL) in a buffered (˜pH 5.4) propylene glycol, monothioglycerol and water solution by subcutaneous injection. Animals were observed from Days 1-10. The study was terminated on Day 10. In addition, some treatment groups were sampled at 6, 24, and 48 hours post bacterial challenge for RNA sequence analysis of lung tissue.
The murine efficacy model (P. multocida challenge) was optimized, and the treatment group size was powered to be able to observe statistically significant improvement of survival to expected ranges for immunomodulatory compounds. The experimental design was a randomized complete block design. Mice were individually identified and treatment groups comingled within a cage, with every treatment group equally represented across cages. Mortality was the primary variable. Mortality data was analyzed using a generalized mixed model with fixed effect of treatment and random effect of block. Survival time was also analyzed using the SAS PHREG (survival analysis) procedure to examine whether there were significant differences between treatment groups and the control group. Numerous compounds of the invention and M9 (positive control) were tested in this model at a dose of 20 mg/kg (Table 3). Typical percent survival for no treatment control is in the range of 0-20% based on study to study variation in challenge inoculum and rate of infection. […] Mouse survival for M9 was about 90-100%, further supporting its residual antibacterial properties against the bacterial strain. Harmonized survival accounts for % survival relative to vehicle (“−” control) and M9 (“+” control)) survival data (Table 3).

IL-6 = assay: Whole blood assay, LPS stimulation, MSD cytokine detection; assay type: cell-based; conditions: Bos taurus, fresh whole bovine blood
[1] = system: BRD pathogens, M. haemolytica and P. multocida; assay: In-vitro MIC model, BRD pathogen screening panel; assay type: cell-based, Mannheimia haemolytica; Pasteurella multocida; conditions: at least one BRD strain

Compound | IC50 (TNF-α) [µM] | IL-1ß OS of LPS (IL-1β) [µM] | % Survival (P. multocida 46572; 46572, sc, 20 mg/kg, 240 h) [%] | IC50 (IL-6) [µM] | clinical efficacy, P. multocida infection in mice (P. multocida 46572; mouse, in vivo) | MIC flag at the example number (Table E) [1] | % Survival (P. multocida 46572; harmonized survival relative to vehicle and M9, 20 mg/kg subcutaneous, Day 10) [%]
CC[C@H]1OC(=O)[C@H](C)[C@@H](O[C@H]2C[C@@](C)(OC)[C@@H](O)[C@H](C)O2)[C@H](C)[C@@H](O[C@@H]2O[C@H](C)C[C@H](NC)[C@H]2Oc2ccccc2)[C@](C)(O)C[C@@H](C)CN(C)[C@H](C)[C@@H](O)[C@]1(C)O [Example A-26, (2R,3S,4R,5R,8R,10R,11R,12S,13S,14R)-2-ethyl-3,4,10-trihydroxy-13-(((2R,4R,5S,6S)-5-hydroxy-4-methoxy-4,6-dimethyltetrahydro-2H-pyran-2-yl)oxy)-3,5,6,8,10,12,14-heptamethyl-11-(((2S,3R,4S,6R)-6-methyl-4-(methylamino)-3-phenoxytetrahydro-2H-pyran-2-yl)oxy)-1-oxa-6-azacyclopentadecan-15-one] | 20 | 16 | 1 |  |  |  | 
CC[C@H]1OC(=O)[C@H](C)[C@@H](O)[C@H](C)[C@@H](O[C@@H]2O[C@H](C)C[C@H](NC)[C@H]2Oc2ccc(F)cc2)[C@](C)(O)C[C@@H](C)CN[C@H](C)[C@@H](O)[C@]1(C)O [Example B-4, (2R,3S,4R,5R,8R,10R,11R,12S,13S,14R)-2-ethyl-11-(((2S,3R,4S,6R)-3-(4-fluorophenoxy)-6-methyl-4-(methylamino)tetrahydro-2H-pyran-2-yl)oxy)-3,4,10,13-tetrahydroxy-3,5,8,10,12,14-hexamethyl-1-oxa-6-azacyclopentadecan-15-one] | 50 | 100 | 0 | 50 | clinically efficacious |  | 
CC[C@H]1OC(=O)[C@H](C)[C@@H](O)[C@H](C)[C@@H](O[C@@H]2O[C@H](C)C[C@H](N(C)C(=O)N(C)c3ccccc3)[C@H]2Oc2ccc(OC)cc2)[C@](C)(O)C[C@@H](C)CN[C@H](C)[C@@H](O)[C@]1(C)O [Example C-1, 1-((2S,3R,4S,6R)-2-(((2R,3S,4R,5R,8R,10R,11R,12S,13S,14R)-2-ethyl-3,4,10,13-tetrahydroxy-3,5,8,10,12,14-hexamethyl-15-oxo-1-oxa-6-azacyclopentadecan-11-yl)oxy)-3-(4-methoxyphenoxy)-6-methyltetrahydro-2H-pyran-4-yl)-1,3-dimethyl-3-phenylurea] | 8 | 16 | 33 | 19 |  |  | 
CC[C@H]1OC(=O)[C@H](C)[C@@H](O)[C@H](C)[C@@H](O[C@@H]2O[C@H](C)C[C@H](N(C)C(=O)N(C)c3ccccc3)[C@H]2Oc2ccccc2)[C@](C)(O)C[C@@H](C)CN[C@H](C)[C@@H](O)[C@]1(C)O [Example C-2, 1-((2S,3R,4S,6R)-2-(((2R,3S,4R,5R,8R,10R,11R,12S, 13S, 14R)-2-ethyl-3,4,10,13-tetrahydroxy-3,5,8,10,12,14-hexamethyl-15-oxo-1-oxa-6-azacyclopentadecan-11-yl)oxy)-6-methyl-3-phenoxytetrahydro-2H-pyran-4-yl)-1,3-dimethyl-3-phenylurea] | 27 | 16 | 54 | 32 |  |  | 
CCCNC[C@]1(O)[C@H](C)O[C@@H](O[C@H]2[C@H](C)[C@@H](O[C@@H]3O[C@H](C)C[C@H](NC)[C@H]3Oc3ccc(F)cc3)[C@](C)(O)C[C@@H](C)CN[C@H](C)[C@@H](O)[C@](C)(O)[C@@H](CC)OC(=O)[C@@H]2C)C[C@@]1(C)OC [Example E-1, (2R,3S,4R,5R,8R,10R,11R,12S,13S,14R)-2-ethyl-11-(((2S,3R,4S,6R)-3-(4-fluorophenoxy)-6-methyl-4-(methylamino)tetrahydro-2H-pyran-2-yl)oxy)-3,4,10-trihydroxy-13-(((2R,4R,5S,6S)-5-hydroxy-4-methoxy-4,6-dimethyl-5-((propylamino)methyl)tetrahydro-2H-pyran-2-yl)oxy)-3,5,8,10,12,14-hexamethyl-1-oxa-6-azacyclopentadecan-15-one] | 6 | 32 | 57 |  |  | E-1* (MIC ≤ 64 μg/mL for at least one BRD strain) | 
CCCNC[C@]1(O)[C@H](C)O[C@@H](O[C@H]2[C@H](C)[C@@H](O[C@@H]3O[C@H](C)C[C@H](N(C)C)[C@H]3Oc3ccccc3)[C@](C)(O)C[C@@H](C)CN[C@H](C)[C@@H](O)[C@](C)(O)[C@@H](CC)OC(=O)[C@@H]2C)C[C@@]1(C)OC [Example E-3, (2R,3S,4R,5R,8R,10R,11R,12S,13S,14R)-11-(((2S,3R,4S,6R)-4-(dimethylamino)-6-methyl-3-phenoxytetrahydro-2H-pyran-2-yl)oxy)-2-ethyl-3,4,10-trihydroxy-13-(((2R,4R,5S,6S)-5-hydroxy-4-methoxy-4,6-dimethyl-5-((propylamino)methyl)tetrahydro-2H-pyran-2-yl)oxy)-3,5,8,10,12,14-hexamethyl-1-oxa-6-azacyclopentadecan-15-one] | 8 | 13 | 37 |  |  |  | 
CCCNC[C@]1(O)[C@H](C)O[C@@H](O[C@H]2[C@H](C)[C@@H](O[C@@H]3O[C@H](C)C[C@H](NC)[C@H]3Oc3ccc(Cl)nc3)[C@](C)(O)C[C@@H](C)CN[C@H](C)[C@@H](O)[C@](C)(O)[C@@H](CC)OC(=O)[C@@H]2C)C[C@@]1(C)OC [Example E-8, (2R,3S,4R,5R,8R,10R,11R,12S,13S,14R)-11-(((2S,3R,4S,6R)-3-((6-chloropyridin-3-yl)oxy)-6-methyl-4-(methylamino)tetrahydro-2H-pyran-2-yl)oxy)-2-ethyl-3,4,10-trihydroxy-13-(((2R,4R,5S,6S)-5-hydroxy-4-methoxy-4,6-dimethyl-5-((propylamino)methyl)tetrahydro-2H-pyran-2-yl)oxy)-3,5,8,10,12,14-hexamethyl-1-oxa-6-azacyclopentadecan-15-one] | 25 | 100 | 36 | 110 |  |  | 
CCCNC[C@]1(O)[C@H](C)O[C@@H](O[C@H]2[C@H](C)[C@@H](O[C@@H]3O[C@H](C)C[C@H](NC)[C@H]3Oc3ncc(Cl)cn3)[C@](C)(O)C[C@@H](C)CN[C@H](C)[C@@H](O)[C@](C)(O)[C@@H](CC)OC(=O)[C@@H]2C)C[C@@]1(C)OC [Example E-30, (2R,3S,4R,5R,8R,10R,11R,12S,13S,14R)-11-(((2S,3R,4S,6R)-3-((5-chloropyrimidin-2-yl)oxy)-6-methyl-4-(methylamino)tetrahydro-2H-pyran-2-yl)oxy)-2-ethyl-3,4,10-trihydroxy-13-(((2R,4R,5S,6S)-5-hydroxy-4-methoxy-4,6-dimethyl-5-((propylamino)methyl)tetrahydro-2H-pyran-2-yl)oxy)-3,5,8,10,12,14-hexamethyl-1-oxa-6-azacyclopentadecan-15-one] | 7 | 13 | 22 |  |  |  | 
CCCNC[C@]1(O)[C@H](C)O[C@@H](O[C@H]2[C@H](C)[C@@H](O[C@@H]3O[C@H](C)C[C@H](NC)[C@H]3Oc3ccc(C#N)cc3)[C@](C)(O)C[C@@H](C)CN[C@H](C)[C@@H](O)[C@](C)(O)[C@@H](CC)OC(=O)[C@@H]2C)C[C@@]1(C)OC [Example E-111, 4-(((2S,3R,4S,6R)-2-(((2R,3S,4R,5R,8R,10R,11R,12S,13S,14R)-2-ethyl-3,4,10-trihydroxy-13-(((2R,4R,5S,6S)-5-hydroxy-4-methoxy-4,6-dimethyl-5-((propylamino)methyl)tetrahydro-2H-pyran-2-yl)oxy)-3,5,8,10,12,14-hexamethyl-15-oxo-1-oxa-6-azacyclopentadecan-11-yl)oxy)-6-methyl-4-(methylamino)tetrahydro-2H-pyran-3-yl)oxy)benzonitrile] | 9 | 80 | 22 | 90 |  |  | 
CCCNC[C@]1(O)[C@H](C)O[C@@H](O[C@H]2[C@H](C)[C@@H](O[C@@H]3O[C@H](C)C[C@H](N(Cc4nccs4)C(=O)N(C)c4ccccc4)[C@H]3O)[C@](C)(O)C[C@@H](C)CN[C@H](C)[C@@H](O)[C@](C)(O)[C@@H](CC)OC(=O)[C@@H]2C)C[C@@]1(C)OC [Example H-64] |  |  |  |  |  |  | 0
